Literature values as cited in patent US20130096948A1, “METHODS FOR DIAGNOSIS, PROGNOSIS AND TREATMENT” (Nodality, Inc., priority 2009, published 2013).
Like-named read-outs stand apart in the source and are kept apart here.

Structure (SMILES) | peak plasma concentration (high dose Cytarabine, 3 g/m2) [µM] | peak plasma concentration (standard dose of Cytarabine, 100 mg/m2) | peak plasma concentration (Daunorubicin at 25 mg/m2) [ng/mL] | peak plasma concentration (Daunorubicin at 50 mg/m2) [ng/mL]
Nc1ccn([C@@H]2O[C@H](CO)[C@@H](O)[C@@H]2O)c(=O)n1 [Cytarabine] | 2 | approximately 40 nM | – | –
COc1cccc2c1C(=O)c1c(O)c3c(c(O)c1C2=O)C[C@@](O)(C(C)=O)C[C@@H]3O[C@H]1C[C@H](N)[C@H](O)[C@H](C)O1 [Daunorubicin] | – | – | 50 | 200
